Assay results: US7160685B2, “Diagnostic reagents for human cytomegalovirus and methods of use” (priority 1996, dated 2007)
Where no end group is shown, it is not given here. [ ]: non-standard residue; d: D form. The star is where a group is joined. Palmitoyl = CCCCCCCCCCCCCCCC(=O)*; Cha = N[C@@H](CC1CCCCC1)C(=O)O

How the values were obtained:
[1] = system: peptide-loaded T2 cells, EBVLCL targets infected with pp65Vac, and HCMV-infected fibroblasts; assay: lipidated peptides with and without IFA in transgenic HLA A2.1 mouse, CRA; assay type: in vivo; settings: peptide together with PADRE, with versus without emulsification in IFA
Protocol: Either one or two palmitic acid moieties were attached to the amino terminus of the 495 peptide, and a series of immunization studies were conducted in the transgenic HLA A2.1 mouse.
Separate mice were immunized with unmodified pp65495-503, and either the monolipidated or dilipidated forms of the peptide together with the PADRE epitope. Because it has been previously shown that lipidated peptides will stimulate immunity without co-administration of Freund's adjuvant (H. Schild et al., Eur. J. Immunol. 21:2649–2654 (1991)), immunization of mice with and without emulsifying the peptides in IFA was compared. In a procedure similar to the procedure described in Example 9 above, twelve days post inoculation the mice were splenectomized and the spleen cell population was restimulated twice in vitro. The splenic effectors were then tested in a chromium release assay with peptide-loaded T2 cells, EBVLCL targets infected with pp65Vac, and HCMV-infected fibroblasts (D. J. Diamond et al., Blood 90 (5):1751–1767 (1997)). […] (See FIGS. 1–3)

[2] = system: HCMV infected and non-infected HLA A*0201 and HLA-mismatched fibroblast targets; assay: single component lipid-HTL-CTL vaccine in transgenic HLA A2.1 mice, fibroblast targets; assay type: in vivo, mouse; settings: 100 nmoles s.c., no adjuvant
Protocol: (§1) Molecule A (SEQ ID NO:37) is a vaccine that has the capability of working in mice and humans, whereas molecule B (SEQ ID NO:38) should only be functional in mice. One hundred nanomoles of each of these vaccine peptides in 25% dimethysulfoxide in phosphate buffered saline with 2.5% hexafluoroisopropanol were injected s.c. into separate transgenic HLA A2.1 mice.
(§2) The methods referred to in Examples 9 and 10 were used to derive spleen cell populations containing cells which were specific against pp65 and HCMV. The spleen cells from immunized mice were tested for recognition and cytolysis against specific and non-specific peptide-sensitized targets, HCMV infected and non-infected HLA A*0201 and HLA-mismatched fibroblast targets. […] This stimulative effect of the booster is in agreement with B. Livingston et al., J. Immunol. 159:1383–1392 (1997)).

[3] = system: peptide-sensitized targets; assay: single component lipid-HTL-CTL vaccine in transgenic HLA A2.1 mice, peptide-sensitized targets; assay type: in vivo, mouse; settings: for lysis of p53149-157 sensitized targets by spleen cells of immunized mice / lysis of pp65495-503 peptide sensitized targets by spleen cells of immunized mice: 100 nmoles s.c. in 25% DMSO/PBS with 2.5% hexafluoroisopropanol
Protocol: as §1, §2

[4] = system: HLA A or B Allele; assay type: cell-based, human; settings: for HLA A or B Allele Specificity: and subtypes where given
[5] = system: peptide loaded T2 cells; assay: immunization of HLA A2.1 transgenic mice, splenic effectors tested on peptide loaded T2 cells; assay type: in vivo, mouse; settings: 50 μg peptide with 20 μg PADRE in IFA s.c., two in vitro restimulation cycles
From the text: A transgenic mouse model lacking prior HCMV exposure, the HLA A2.1 mouse (E. J. Bernhard et al., J. Exp. Med. 168:1157–1162 (1988)), was employed to test whether the 495 peptide could stimulate CTLs lacking prior virus exposure and function as a vaccine. These experiments involved in vitro analysis using mouse and human cell targets, either infected with viruses or primed with the peptide of SEQ ID NO:1 or a non-specific control peptide.
Three mice were immunized subcutaneously at the base of the tail with 50 μg of the 495 peptide (pp65495-503) or peptide p53149-157 from p53 (M. Theobald et al., Proc. Natl. Acad. Sci. U.S.A. 92:11993–11997 (1995)) together with 20 μg of the polyclonal helper T lymphocyte (HTL) peptide (PADRE; SEQ ID NO:29) (J. Alexander et al., Immunity. 1:751–761 (1994)) emulsified in IFA (Incomplete Freund's Adjuvant). After twelve days, spleens were removed from immunized mice, a splenic suspension was made, and the effector cells were restimulated for one week using p53149-157 or pp65495-503 peptide sensitized syngeneic lipopolysaccharide-treated splenic blast cells (P. A. Wentworth et al., Eur. J. Immunol. 26:97–101 (1996)). Thereafter, for subsequent in vitro stimulations, the stimulator cells were Jurkat A2.1 cells, prepared by mild acid treatment and subsequent loading of peptides (Z. Yu et al., Journal of Surgical Research 69:337–343 (1997)). […]

| Substance | Number of Test Cell Lines (independent cell lines of the same restriction which were sensitized) [4] | HLA A or B Allele Specificity [4] | also measured |
| --- | --- | --- | --- |
| 1 PALMITIC ACID-KSS-NLVPMVATV-OH (Palmitoyl-KSSNLVPMVATV-OH; SMILES CCCCCCCCCCCCCCCC(=O)N[C@@H](CCCCN)C(=O)N[C@@H](CO)C(=O)N[C@@H](CO)C(=O)N[C@@H](CC(N)=O)C(=O)N[C@@H](CC(C)C)C(=O)N[C@H](C(=O)N1CCC[C@H]1C(=O)N[C@@H](CCSC)C(=O)N[C@H](C(=O)N[C@@H](C)C(=O)N[C@H](C(=O)N[C@H](C(=O)O)C(C)C)[C@@H](C)O)C(C)C)C(C)C) [SEQ ID NO:31] |  |  | immune response induced (CRA of splenic effectors) [1]: weaker immune response |
| (Pam)2-KSSAKXVAAWTLKAAANLVPMVATV (KSSAK[Cha]VAAWTLKAAANLVPMVATV; not fully specified (residue 1, N-terminus); printed as (Pam)2-KSSAKXVAAWTLKAAANLVPMVATV; also: (Pam)2- two palmitoyl groups at N-terminal end, attachment not given here) [SEQ ID NO:37] |  |  | lysis of HCMV-infected HLA A*0201 fibroblasts [2]: effectively lysed; lysis of uninfected or HLA-mismatched fibroblasts [2]: not recognized or lysed; immune response after single immunization ([3]; 50 nmole, single immunization): not effective; immune response after second immunization (booster) ([3]; 50 nmole, with booster): detectable immune response; lysis of p53149-157 sensitized targets by spleen cells of immunized mice ([3]; no adjuvant): ineffective; lysis of pp65495-503 peptide sensitized targets by spleen cells of immunized mice ([3]; no adjuvant): effectively lysed; relative potency of molecules A and B ([3]; 100 nmoles s.c., no adjuvant): more potent of the two |
| (Pam)2-KSSISQAVHAAHAEINEAAANLVPMVATV (also: two palmitoyl groups on the N-terminal lysine, exact amine positions not given here) [SEQ ID NO:38] |  |  | lysis of HCMV-infected HLA A*0201 fibroblasts [2]: effectively lysed; lysis of uninfected or HLA-mismatched fibroblasts [2]: not recognized or lysed; lysis of p53149-157 sensitized targets by spleen cells of immunized mice ([3]; no adjuvant): ineffective; lysis of pp65495-503 peptide sensitized targets by spleen cells of immunized mice ([3]; no adjuvant): effectively lysed |
| EFFWDANDIY (listed as Human cytomegalovirus) [SEQ ID NO: 13] | 2 | HLA B*44XX |  |
| FPTKDVAL [SEQ ID NO: 9] | 3 | HLA B*3502, |  |
| FTSQYRIQGKL (listed as Human cytomegalovirus) [SEQ ID NO: 14] | 4 | HLA A*2402 |  |
| FVFPTKDVALR (listed as Human cytomegalovirus) [SEQ ID NO: 5] | 3 | HLA A*6801 |  |
| KSS-NLVPMVATV-OH (KSSNLVPMVATV-OH) [SEQ ID NO:30] |  |  | immune response induced (CRA of splenic effectors) [1]: no activity unless emulsified in IFA |
| PTFTSQYRIQGKL (listed as Human cytomegalovirus) [SEQ ID NO: 12] | 3 | HLA B*3801/2 |  |
| RPHERNGFTVL (listed as Human cytomegalovirus) [SEQ ID NO: 10] | 5 | HLA B7 |  |
| SVLGPISGHVLK [SEQ ID NO: 11] | 5 | HLA A*1101 |  |
| TPRVTGGGAM (listed as Human cytomegalovirus) [SEQ ID NO: 7] | 5 | HLA B7 |  |
| p53149-157: peptide p53149-157 from human p53 which binds to HLA A*0201, control peptide (STPPPGTRV; UniProt P04637 149-157, looked up, fragment) |  |  | recognition of T2 cells loaded with the immunizing peptide by murine splenic effectors [5]: substantial recognition; recognition of T2 cells loaded with the non-immunizing peptide [5]: without recognition of the non-immunizing peptide |
